We go through two compounds from publication PMC9919861, “Homoleptic Complexes of Heterocyclic Curcuminoids with Mg(II) and Cu(II): First Conformationally Heteroleptic Case, Crystal Structures, and Biological Properties” (Molecules, 2023).

Series [1] relates to lipid peroxidation in rat brain homogenate. Briefly: Inhibition of lipid peroxidation (TBARS) in rat brain homogenate, FeSO4-induced. In kind it is biochemical. How it is done:
Adult male Wistar rats (200–250 g) were provided by the Instituto de Fisiología Celular, Universidad Nacional Autónoma de México (UNAM). The procedures and care of animals were conducted in conformity with the Mexican Official Norm for Animal Care and Handling NOM-062-ZOO-1999. They were maintained at 23 ± 2 °C on a 12/12 h light-dark cycle with ad libitum access to food and water.
Animal sacrifice was carried out avoiding unnecessary pain. The rats were sacrificed with CO2. The cerebral tissue (whole brain) was rapidly dissected and homogenized in phosphate-buffered saline (PBS) solution (0.2 g of KCl, 0.2 g of KH2PO4, 8 g of NaCl, and 2.16 g of NaHPO4.7H2O/L, pH adjusted to 7.4) as described elsewhere to produce a 1/10 (w/v) homogenate. The homogenate was centrifuged at 800 rcf (relative centrifugal field) for 10 min. The supernatant protein content was measured using Folin and Ciocalteu’s phenol reagent and adjusted with PBS at 2.666 mg of protein/mL.
As an index of lipid peroxidation, TBARS levels were measured using rat brain homogenates according to the method described by Ng and co-workers, with some modifications. A supernatant (375 µL) was added with 50 µL of 20 µM EDTA and 25 µL of each sample concentration dissolved in DMSO (25 µL of DMSO for the control group) and incubated at 37 °C for 30 min. The lipid peroxidation was started adding 50 µL of freshly prepared 100 µM FeSO4 solution (final concentration 10 µM) and incubated at 37 °C for 1h. The TBARS measurements were obtained as described by Ohkawa and co-workers, with some modifications. To each tube 500 µL of TBA reagent (0.5% 2-thiobarbituric acid in 0.05 N NaOH and 30% trichloroacetic acid, in 1:1 ratio) was added and the final suspension was cooled on ice for 10 min, centrifuged at 13,400 rcf for 5 min and heated at 80 °C in a water bath for 30 min. After cooling at room temperature, the absorbance of 200 µL of supernatant was measured at λ = 540 nm in a Microplate Reader Synergy/HT BIOTEK Instrument, Inc., Winooski, VT, USA. The concentration of TBARS was calculated by interpolation on a standard curve of tetra-methoxypropane (TMP) as a precursor of MDA [38]. Results are expressed as n moles of TBARS per mg of protein. The inhibition ratio (IR [%]) was calculated using the formula IR = (C − E) × 100/C, where C is the control absorbance and E is the sample absorbance. Butylated hydroxytoluene (BHT) and α tocopherol were used as positive standards. All data are presented as mean ± standard error (SEM). The data were analyzed by one-way analysis of variance (ANOVA) followed by Dunnett’s test for comparison against a control. Values of p ≤ 0.05 (*) and p ≤ 0.01 (**) were considered statistically significant.

Series [2] has as its system HCT-15 (human colon adenocarcinoma). Briefly: Cytotoxicity, sulforhodamine B (SRB) microculture assay. Conditions: Homo sapiens; for inhibition at 25 µM: read-out: % of Inhibition (cytotoxic screening). In kind it is cell-based. On the procedure:
(§1) The cytotoxicity of all compounds was tested against six cancer cell lines: U251 (human glioblastoma cell line), PC-3 (human prostate adenocarcinoma), K562 (human chronic myelogenous leukemia), HCT-15 (human colon adenocarcinoma), MCF-7 (human mammary adenocarcinoma), and SKLU-1 (human lung adenocarcinoma). Cell lines were supplied by the U.S. National Cancer Institute (NCI). The cell lines were cultured in an RPMI-1640 medium supplemented with 10% fetal bovine serum, […] L-glutamine, 10,000 units/mL penicillin G sodium, 10,000 µg/mL streptomycin sulfate, 25 µg/mL amphotericin B (Invitrogen/Gibco™, Thermo Fisher Scientific, Waltham, MA, USA), and 1% non-essential amino acids (Gibco). They were maintained at 37 °C in a humidified atmosphere with 5% CO2. […] The human tumor cytotoxicity was determined using the protein-binding dye sulforhodamine B (SRB) in a microculture assay to measure cell growth, as described in the protocols established by the NCI [39, 40, 41].
For orientation: In SRB staining, fixed cells bind dye roughly in proportion to their protein.

The test system of series [3] is K562 (human chronic myelogenous leukemia). The series is described as above. In kind it is cell-based. Conditions: Homo sapiens; for inhibition at 25 µM: read-out: % of Inhibition (cytotoxic screening). On the procedure:
as §1

Series [4] concerns PC-3 (human prostate adenocarcinoma). The description is as above. In kind it is cell-based. Conditions: Homo sapiens, 25 μM, read-out: % of Inhibition (cytotoxic screening). On the procedure:
as §1

The test system of series [5] is MCF-7 (human mammary adenocarcinoma). The description is as above. In kind it is cell-based. Conditions: Homo sapiens; for inhibition at 25 µM: MCF7, 25 μM, read-out: % of Inhibition (cytotoxic screening). How it is done: as §1
The subject of series [6] is U251 (human glioblastoma cell line). The series is described as above. In kind it is cell-based. The note with it: Homo sapiens; for inhibition at 25 µM: U-251, 25 μM, read-out: % of Inhibition (cytotoxic screening). How it is done: as §1
Series [7] has as its system SKLU-1 (human lung adenocarcinoma). The description is as above. In kind it is cell-based. Conditions: Homo sapiens; for inhibition at 25 µM: SK-LU-1, 25 μM, read-out: % of Inhibition (cytotoxic screening). On the procedure: as §1
Series [8] can be described thus: Cytotoxicity towards healthy cell line. Conditions: monkey, COS-7 kidney cells; COS7; 25 μM; read-out: % of Inhibition (cytotoxic screening). Format: cell-based, monkey.
[9] abbreviates: concentration 1 (unit not given).
Where [10] appears, read: concentration 10 (unit not given).
Setting [11] is: concentration 100 (unit not given).

For the compound `Cn1cccc1/C=C/C(=O)/C=C(O)/C=C/c1cccn1C` [N-methyl-pyrCurc, N-methylpyrrolcurcumin], the “% of Inhibition (lipoperoxidation screening)” value in series [1] (setting [9]) came out at 13.71%; in series [1] (setting [10]), 17.41%; in series [1] (setting [11]), 84.75%. In addition, the IC50 (usually the point on the concentration scale where inhibition reaches its midpoint) stood at 22.4 ± 2.4 µM in series [2]; 12.9 ± 1 µM in series [3]; 27.3 ± 4.3 µM in series [5] (MCF7); 25.8 ± 2.7 µM in series [6] (U-251); 13 ± 1.9 µM in series [7] (SK-LU-1). In addition, the inhibition (in general, the change of the read-out against control, counted positive when it falls) at 25 µM in series [2] is 18.1%; in series [3], 65.8%; in series [4], 60.4%; in series [5], 99.9%; in series [6], 52.8%; in series [7], 100%. Moreover, the inhibition at 25 µM in series [8] stood at 100%.
In the case of `O=C(/C=C(O)/C=C/c1cccs1)/C=C/c1cccs1` [ThiopheneCurc, Thiophenecurcumin], the “Inhibition (%) of lipid peroxidation” value in series [1] (10 μM, mean ± SEM, n = 3) is given as 17.68 ± 0.97%; in series [1] (17.78 μM, mean ± SEM, n = 3), 40.94 ± 0.36%; in series [1] (31.62 μM, mean ± SEM, n = 3), 61.81 ± 1.08%; in series [1] (56.23 μM, mean ± SEM, n = 3), 71.25 ± 1.79%; in series [1] (100 μM, mean ± SEM, n = 3) it was 73.06 ± 3.06%; in series [1] (177.83 μM, mean ± SEM, n = 3), 66.63 ± 3.83%. For the same compound, the TBARS in series [1] (10 μM, mean ± SEM, n = 3) was 4.398 ± 0.177 nmol/mg prot; in series [1] (17.78 μM, mean ± SEM, n = 3), 3.157 ± 0.139 nmol/mg prot; in series [1] (31.62 μM, mean ± SEM, n = 3) it was 2.042 ± 0.116 nmol/mg prot; in series [1] (56.23 μM, mean ± SEM, n = 3), 1.528 ± 0.035 nmol/mg prot; in series [1] (100 μM, mean ± SEM, n = 3) it was 1.425 ± 0.094 nmol/mg prot; in series [1] (177.83 μM, mean ± SEM, n = 3), 1.766 ± 0.119 nmol/mg prot. Moreover, the “% of Inhibition (lipoperoxidation screening)” value is reported as 0.23% in series [1] (setting [9]), 25.43% in series [1] (setting [10]) and 51.90% in series [1] (setting [11]). In addition, the IC50 in series [1] (rat brain homogenate, TBARS, mean ± SEM, n = 3) stood at 22.02 ± 0.15 µM. Further, the inhibition at 25 µM in series [2] worked out at 0%; in series [3] it was 4.4%; in series [4] it was 14.8%; in series [5], 13.4%; in series [6] it was 0%; in series [7] it was 0%. Further, in series [8], the inhibition at 25 µM worked out at 0%.
